Laboratory results published in ChEMBL document CHEMBL1201862, “PubChem BioAssay data set” (2004).
Several values for one entry are separate records, joined by “and”; a condition that tells them apart may be missing. Equal entries are not always repeated.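 Where inhibition never reached the appropriate level, the endpoint shown equals the highest concentration tested. Otherwise, values were interpolated linearly from a five-concentration, 48-hour dose response in 96-well plates. Abbreviation: GI50, concentration required for 50% inhibition of growth.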 Activity calls are given as the source filed them. Cut-off read from the data, not from the text of the source: active = GI50 up to about 1.1 µM and inactive = higher.

How the values were obtained:
Experiment in all cases: NCI-60 cell line screen, 48 h
A549 = system: A549
DU-145 = system: DU-145
HCC 2998 = system: HCC 2998
HL-60 = system: HL-60
IGROV-1 = system: IGROV-1
MCF7 = system: MCF7
MDA-MB-231 = system: MDA-MB-231
NCI-H23 = system: NCI-H23
NCI-H460 = system: NCI-H460
NCI-H522 = system: NCI-H522
OVCAR-5 = system: OVCAR-5
PC-3 = system: PC-3
SF-539 = system: SF-539
SK-MEL-2 = system: SK-MEL-2
SK-MEL-5 = system: SK-MEL-5
SN12C = system: SN12C
SW-620 = system: SW-620
T47D = system: T47D
TK-10 = system: TK-10
U-251 = system: U-251

Compound	GI50 (A549)	GI50 (DU-145)	GI50 (HCC 2998)	GI50 (HL-60)	GI50 (IGROV-1)	GI50 (MCF7)	GI50 (MDA-MB-231)	GI50 (NCI-H23)	GI50 (NCI-H460)	GI50 (NCI-H522)	GI50 (OVCAR-5)	GI50 (PC-3)	GI50 (SF-539)	GI50 (SK-MEL-2)	GI50 (SK-MEL-5)	GI50 (SN12C)	GI50 (SW-620)	GI50 (T47D)	GI50 (TK-10)	GI50 (U-251)
NCCCNC1(c2cc3ccccc3s2)CCCCC1	7.1 µM (inactive)	12 µM (inactive)	1.55 µM (inactive)	2.64 µM (inactive)	10.6 µM (inactive)	3.69 µM (inactive)	3.86 µM (inactive)	15.7 µM (inactive)	1.94 µM (inactive)	3.21 µM (inactive)	13 µM (inactive)	7.13 µM (inactive)	2.38 µM (inactive)	1.79 µM (inactive)	1.82 µM (inactive)	10.5 µM (inactive)	4.55 µM (inactive)	2.58 µM (inactive)	3.75 µM (inactive)	2.93 µM (inactive)
COc1ccc(C2Oc3c(OC)cc(CCCO)cc3C2CO)cc1OC (centres undefined)	88.1 µM (inactive) and 80 µM (inactive)	> 100 µM (inactive)	> 100 µM (inactive)	43.8 µM (inactive) and 65.3 µM (inactive)	> 100 µM (inactive)	27.6 µM (inactive) and 44.7 µM (inactive)	99.3 µM (inactive)	–	> 100 µM (inactive)	86.7 µM (inactive)	> 100 µM (inactive)	> 100 µM (inactive)	> 100 µM (inactive)	95.1 µM (inactive)	–	> 100 µM (inactive)	> 100 µM (inactive)	10.9 µM (inactive) and 18.3 µM (inactive)	> 100 µM (inactive)	> 100 µM (inactive)
CCOC(=O)C1(C(=O)OCC)[C@H](c2ccccc2)C2=NO[C@@H]3CCC[C@H]1[C@H]23	55.6 µM (inactive)	> 100 µM (inactive)	22.1 µM (inactive)	33.8 µM (inactive)	56.8 µM (inactive)	41.4 µM (inactive)	75.7 µM (inactive)	57.1 µM (inactive)	60.5 µM (inactive)	42.9 µM (inactive)	65.6 µM (inactive)	49.3 µM (inactive)	> 100 µM (inactive)	40.9 µM (inactive)	31.3 µM (inactive)	> 100 µM (inactive)	58.1 µM (inactive)	26.5 µM (inactive)	63.2 µM (inactive)	49.9 µM (inactive)
CS(=O)(=O)c1ccc(/N=C/C=C/Nc2ccc(S(C)(=O)=O)cc2)cc1	> 100 µM (inactive)	> 100 µM (inactive)	> 100 µM (inactive)	> 100 µM (inactive)	> 100 µM (inactive)	> 100 µM (inactive)	> 100 µM (inactive)	> 100 µM (inactive)	> 100 µM (inactive)	> 100 µM (inactive)	> 100 µM (inactive)	> 100 µM (inactive)	> 100 µM (inactive)	> 100 µM (inactive)	> 100 µM (inactive)	> 100 µM (inactive)	> 100 µM (inactive)	> 100 µM (inactive)	> 100 µM (inactive)	> 100 µM (inactive)
Cn1c(=O)n2n(c1=O)Cc1cccc3cccc(c13)C2	> 100 µM (inactive)	> 100 µM (inactive)	> 100 µM (inactive)	1.82 µM (inactive)	–	> 100 µM (inactive)	> 100 µM (inactive)	> 100 µM (inactive)	> 100 µM (inactive)	> 100 µM (inactive)	> 100 µM (inactive)	> 100 µM (inactive)	> 100 µM (inactive)	> 100 µM (inactive)	> 100 µM (inactive)	> 100 µM (inactive)	> 100 µM (inactive)	> 100 µM (inactive)	> 100 µM (inactive)	> 100 µM (inactive)
COc1ccc2nc3cc(Cl)ccc3c(NCCCNCc3cc(OC)c(OC)c(OC)c3)c2c1	1.83 µM (inactive)	1.7 µM (inactive)	1.75 µM (inactive)	0.895 µM (active)	1.82 µM (inactive)	1.75 µM (inactive)	1.98 µM (inactive)	1.71 µM (inactive)	1.64 µM (inactive)	1.5 µM (inactive)	1.69 µM (inactive)	1.4 µM (inactive)	1.87 µM (inactive)	1.91 µM (inactive)	1.4 µM (inactive)	1.53 µM (inactive)	0.733 µM (active)	1.89 µM (inactive)	1.73 µM (inactive)	1.76 µM (inactive)
O=C1c2ccccc2C2=Cc3ccccc3C(O)N12 (centres undefined)	> 100 µM (inactive)	> 100 µM (inactive)	> 100 µM (inactive)	26.2 µM (inactive)	> 100 µM (inactive)	> 100 µM (inactive)	> 100 µM (inactive)	> 100 µM (inactive)	> 100 µM (inactive)	21.7 µM (inactive)	> 100 µM (inactive)	> 100 µM (inactive)	> 100 µM (inactive)	> 100 µM (inactive)	> 100 µM (inactive)	> 100 µM (inactive)	> 100 µM (inactive)	70.5 µM (inactive)	> 100 µM (inactive)	> 100 µM (inactive)
CC(=O)OCC1OC(n2c3c(cc(C#N)c2=S)CCCCCC3)C(OC(C)=O)C(OC(C)=O)C1OC(C)=O (centres undefined)	> 100 µM (inactive)	> 100 µM (inactive)	27.5 µM (inactive)	36.2 µM (inactive)	> 100 µM (inactive)	> 100 µM (inactive)	> 100 µM (inactive)	> 100 µM (inactive)	42.2 µM (inactive)	76.4 µM (inactive)	> 100 µM (inactive)	> 100 µM (inactive)	> 100 µM (inactive)	> 100 µM (inactive)	72.1 µM (inactive)	> 100 µM (inactive)	–	5.2 µM (inactive)	> 100 µM (inactive)	91 µM (inactive)
CC(=O)OC[C@]1(C(=O)C(O)c2ccoc2)[C@H](C)CC[C@@]23COC(=O)C2=CCC[C@@H]31 (some centres undefined)	> 10 µM (inactive)	> 10 µM (inactive)	> 10 µM (inactive)	> 10 µM (inactive)	> 10 µM (inactive)	> 10 µM (inactive)	> 10 µM (inactive)	> 10 µM (inactive)	> 10 µM (inactive)	> 10 µM (inactive)	> 10 µM (inactive)	> 10 µM (inactive)	> 10 µM (inactive)	> 10 µM (inactive)	> 10 µM (inactive)	> 10 µM (inactive)	> 10 µM (inactive)	> 10 µM (inactive)	> 10 µM (inactive)	> 10 µM (inactive)
CC[C@@]1(O)C(=O)OCc2c1cc1n(c2=O)Cc2c-1nc1ccccc1c2/C=N\NC(=O)C(N)=O	0.859 µM (active)	0.0736 µM (active)	2.25 µM (inactive)	0.0582 µM (active)	4.79 µM (inactive)	0.0189 µM (active)	31.8 µM (inactive)	0.0543 µM (active)	0.0559 µM (active)	0.333 µM (active)	25.8 µM (inactive)	4.36 µM (inactive)	0.0217 µM (active)	29 µM (inactive)	0.222 µM (active)	0.172 µM (active)	1.42 µM (inactive)	< 0.01 µM (active)	43.6 µM (inactive)	0.0398 µM (active)
COC(=O)c1c(O)ccc2[nH]c3c(O)c4ccccc4cc3c12	32.2 µM (inactive)	20 µM (inactive)	13.9 µM (inactive)	14.1 µM (inactive)	16.7 µM (inactive)	16 µM (inactive)	75 µM (inactive)	23 µM (inactive)	24.1 µM (inactive)	32 µM (inactive)	76.9 µM (inactive)	30.4 µM (inactive)	21.4 µM (inactive)	32.4 µM (inactive)	24 µM (inactive)	43.6 µM (inactive)	–	15.1 µM (inactive)	34.2 µM (inactive)	36.5 µM (inactive)
C1COCCN1.S=C(S)N1CCOCC1	8.24 µM (inactive)	> 100 µM (inactive)	2.59 µM (inactive)	1.12 µM (inactive)	6.76 µM (inactive)	29.4 µM (inactive)	> 100 µM (inactive)	2.43 µM (inactive)	5.87 µM (inactive)	0.973 µM (active)	12.5 µM (inactive)	> 100 µM (inactive)	43.1 µM (inactive)	36.4 µM (inactive)	7.59 µM (inactive)	> 100 µM (inactive)	2.55 µM (inactive)	> 100 µM (inactive)	> 100 µM (inactive)	4.98 µM (inactive)
COC(=O)C12CCC(C(F)(F)C1=O)C2(C)C (centres undefined)	> 100 µM (inactive)	> 100 µM (inactive)	> 100 µM (inactive)	> 100 µM (inactive)	> 100 µM (inactive)	> 100 µM (inactive)	> 100 µM (inactive)	> 100 µM (inactive)	> 100 µM (inactive)	> 100 µM (inactive)	> 100 µM (inactive)	> 100 µM (inactive)	> 100 µM (inactive)	> 100 µM (inactive)	> 100 µM (inactive)	> 100 µM (inactive)	> 100 µM (inactive)	> 100 µM (inactive)	> 100 µM (inactive)	> 100 µM (inactive)
Cc1ccc2[nH]c3c(c2c1)C1CCC(C(C)(C)C)CC1C1C(=O)N(c2ccc(Oc4ccccc4)cc2)C(=O)C31 (centres undefined)	16.3 µM (inactive)	> 95.3 µM (inactive)	39.3 µM (inactive)	2.57 µM (inactive)	30.8 µM (inactive)	56.9 µM (inactive)	20.3 µM (inactive)	19.3 µM (inactive)	16 µM (inactive)	13.2 µM (inactive)	26.3 µM (inactive)	67.9 µM (inactive)	–	34.9 µM (inactive)	> 92.5 µM (inactive)	10.4 µM (inactive)	19.3 µM (inactive)	16.2 µM (inactive)	20 µM (inactive)	5.61 µM (inactive)
